2 compounds from publication PMC4303209, “A novel phosphatidylinositol 3-kinase (PI3K) inhibitor directs a potent FOXO-dependent, p53-independent cell cycle arrest phenotype characterized by the differential induction of a subset of FOXO-regulated genes” (Breast Cancer Research : BCR, 2014) can be followed below.

One may read the GI50 as the concentration at which growth is held to half of that of the control. Lower therefore signals more potent growth inhibition.

One experiment concerns NCIH460. The experiment can be described thus: Proliferation assay (MTT, 72 hours). It counts as cell-based. The settings on record: Homo sapiens, NCI-H460. As to the method:
(§1) Cells were seeded in 96-well microtitre plates. Compounds (in DMSO) were added to each well (at a final concentration of 10 μM). The medium was removed from the cells and replaced with 0.2 ml of medium containing either compound for 72 hours and then processed for MTT assay (Promega Corp, Madison, WI, USA) N = 6.
(§2) Figure 1 Cellular response to ETP-45658. […] Seventy-two hours post treatment, MTT assays were conducted. (B) Dose- and time-dependent analysis of Ser473 phosphorylation of AKT phosphorylation by 100nM ETP-45658 or PI-103 treatment. MCF-7 or U2OS cells were treated with the indicated concentrations (μM) of ETP-45658 (or PI-103) for four hours, then total protein was extracted and immunoblotted. For nuclear FOXO analysis, nuclear protein fractions were collected four hours post ETP-45658 (or PI-103) treatment. Nuclear FOXO3a levels were measure by immunoblotting. Nuclear fractions were confirmed by probing for lamin A/C. (C) FACS profile of MCF-7 or U2OS following 100 nM ETP-45658 treatment (20,000 events scored, N = 5). (D) Heat map for the top 100 differentially expressed genes based on hierarchical clustering using Euclidean distance metric. Red and green indicate genes that induced or repressed respectively by ETP-45658 or PI-103. Black indicates no change (N = 4). […] Numbers indicate number of genes that are exclusive to that particular category.

Another experiment relates to HCT-116. Nature of the experiment: Proliferation assay (MTT, 72 hours). The settings on record: Homo sapiens. The format is cell-based. As to the method:
as §1, §2

In another experiment the test system is MV4.11. Nature of the experiment: Proliferation assay (MTT, 72 hours). To be noted: Homo sapiens. It counts as cell-based. As to the method: as §1, §2
The next experiment concerns T47D. The experiment can be described thus: Proliferation assay (MTT, 72 hours). The format is cell-based. The settings on record: Homo sapiens. As to the method:
as §1, §2

In the next experiment the test system is MCF-7. The experiment can be described thus: Proliferation assay (MTT, 72 hours). The format is cell-based. The settings on record: Homo sapiens, MCF7. As to the method:
as §1, §2

For another experiment, the system named is PC3. Nature of the experiment: Proliferation assay (MTT, 72 hours). It counts as cell-based. The settings on record: Homo sapiens, PC-3. As to the method:
as §1, §2

A further experiment concerns nuclear FOXO3a. Nature of the experiment: Immunoblot of nuclear fractions for FOXO3a in MCF-7 or U2OS cells. The format is cell-based, human. The settings on record: nuclear fractions of treated MCF-7 or U2OS cells. As to the method:
as §2
On the technique in general: A western blot detects proteins with antibodies after separation by electrophoresis.

On to `Oc1cccc(-c2nc(N3CCOCC3)c3oc4ncccc4c3n2)c1` [PI-103], for which the GI50 in the experiment with NCIH460 worked out at 1.31 µM; in the experiment on HCT-116 it was 1.67 µM; with MV4.11, 0.05 µM; with T47D, 0.34 µM; in the experiment on MCF-7 it was 0.5 µM; in the experiment with PC3 it was 0.05 µM.
For `Cn1ncc2c(N3CCOCC3)nc(-c3cccc(O)c3)nc21` [ETP-45658], in the experiment on nuclear FOXO3a, the “nuclear FOXO3a level” value is given as “significant accumulation”.
